Experimental data published in PubChem BioAssay (NCI).
“And” between values parts separate entries of the source, which are not always exact repeats. Identical values can stand only once.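 96-well plates; 48 h exposure; 5 concentrations. Endpoints by linear interpolation between flanking doses. Not reached: highest tested concentration assigned. The concentration for 50% growth inhibition is given as GI50. TGI: total growth inhibition.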

Key:
Experiment in all cases: NCI anticancer screen, dose series, 48 h
HS 578T breast = tested on: HS 578T breast
MDA-MB-231 breast = tested on: MDA-MB-231 breast
MDA-MB-435 = tested on: MDA-MB-435
PC-3 prostate = tested on: PC-3 prostate
T-47D breast = tested on: T-47D breast
DMS 114 small cell lung = tested on: DMS 114 small cell lung
DMS 273 small cell lung = tested on: DMS 273 small cell lung
HOP-18 NSCLC = tested on: HOP-18 NSCLC
SNB-78 CNS = tested on: SNB-78 CNS
XF 498 CNS = tested on: XF 498 CNS
LXFL 529 NSCLC = tested on: LXFL 529 NSCLC

## OC(CC1CCCCN1)c1ccc2c(c1)oc1ccccc12 (stereo not drawn)
HS 578T breast
  TGI: > 100 µM
MDA-MB-231 breast
  TGI: > 100 µM
MDA-MB-435
  TGI: > 100 µM
PC-3 prostate
  TGI: > 100 µM
T-47D breast
  TGI: > 100 µM

## CN(C)CCNC(=O)c1cccc2c(=O)c3ccccc3oc12
DMS 114 small cell lung
  TGI: > 69.8 µM
DMS 273 small cell lung
  TGI: > 91.2 µM
HOP-18 NSCLC
  TGI: > 100 µM
SNB-78 CNS
  TGI: > 100 µM
XF 498 CNS
  TGI: > 93.9 µM

## Cc1n(CC(C)C)c2c([n+]1C)C(=O)c1ccccc1C2=O
DMS 114 small cell lung
  TGI: < 0.0255 µM
DMS 273 small cell lung
  TGI: 0.786 µM
HOP-18 NSCLC
  TGI: 3.63 µM
HS 578T breast
  TGI: 3.05 µM
LXFL 529 NSCLC
  TGI: 0.508 µM
MDA-MB-231 breast
  TGI: 0.344 µM
MDA-MB-435
  TGI: 0.277 µM
PC-3 prostate
  TGI: 0.337 µM
SNB-78 CNS
  TGI: 3.48 µM
T-47D breast
  TGI: 0.441 µM
XF 498 CNS
  TGI: 1.46 µM

## CCOP(=Nc1ccc(N(C)C)cc1)(OCC)OCC
HS 578T breast
  TGI: > 100 µM
MDA-MB-231 breast
  TGI: > 100 µM
MDA-MB-435
  TGI: > 100 µM
PC-3 prostate
  TGI: > 100 µM

## CCC1C[N+]23CCc4c([nH]c5ccccc45)C2CC1CC3 (stereo not drawn)
DMS 114 small cell lung
  TGI: > 100 µM
DMS 273 small cell lung
  TGI: > 100 µM
LXFL 529 NSCLC
  TGI: > 100 µM
XF 498 CNS
  TGI: > 100 µM

## CN(C)/C=C/C(=CC=[N+](C)C)/C=C/N(C)C
DMS 273 small cell lung
  TGI: > 100 µM
LXFL 529 NSCLC
  TGI: > 100 µM
SNB-78 CNS
  TGI: > 100 µM
XF 498 CNS
  TGI: > 100 µM

## CC(=O)C(C(c1ccccc1)N1CCOCC1)N1CCOCC1 (stereo not drawn)
HS 578T breast
  TGI: > 100 µM
MDA-MB-231 breast
  TGI: > 100 µM
MDA-MB-435
  TGI: > 100 µM
PC-3 prostate
  TGI: > 100 µM
T-47D breast
  TGI: > 100 µM

## Cc1ccc(S(=O)(=O)Nc2cccc3c(=O)[nH]cnc23)cc1
DMS 114 small cell lung
  TGI: > 100 µM
DMS 273 small cell lung
  TGI: > 100 µM
HOP-18 NSCLC
  TGI: > 100 µM
LXFL 529 NSCLC
  TGI: > 100 µM
SNB-78 CNS
  TGI: > 100 µM
XF 498 CNS
  TGI: > 100 µM

## CC1=C2C(O)C(C(C)C(=O)N(C)C)CCC2(C)C=CC1=O (stereo not drawn)
DMS 114 small cell lung
  TGI: > 100 µM
DMS 273 small cell lung
  TGI: > 100 µM
HOP-18 NSCLC
  TGI: > 100 µM
SNB-78 CNS
  TGI: > 100 µM
XF 498 CNS
  TGI: > 100 µM

## O=C1C=C(C2OC(CO)C(O)C2O)C(=O)N1 (stereo not drawn)
DMS 114 small cell lung
  TGI: > 100 µM
DMS 273 small cell lung
  TGI: > 100 µM
HOP-18 NSCLC
  TGI: > 100 µM
SNB-78 CNS
  TGI: > 100 µM

## COc1cc2c(cc1O)c(O)cc1c3cc(OC)c(OC)cc3c[n+](C)c21
HS 578T breast
  TGI: > 27.4 µM
MDA-MB-231 breast
  TGI: > 67.9 µM
MDA-MB-435
  TGI: 30.9 µM
PC-3 prostate
  TGI: > 100 µM
T-47D breast
  TGI: > 80.3 µM

## COC1OC(CS(=O)(=O)O)C(O)C(O)C1O (stereo not drawn)
HS 578T breast
  TGI: > 100 µM
MDA-MB-435
  TGI: > 100 µM
PC-3 prostate
  TGI: > 100 µM
T-47D breast
  TGI: > 100 µM

## O=C(c1ccccc1)c1ccc2n[se]nc2c1
DMS 114 small cell lung
  TGI: 60 µM
DMS 273 small cell lung
  TGI: > 100 µM
LXFL 529 NSCLC
  TGI: > 100 µM
SNB-78 CNS
  TGI: > 100 µM

## Cc1ccc2c(ccc(/C=C/c3ccc(O)c4ncccc34)[n+]2C)c1
DMS 114 small cell lung
  TGI: 4.28 µM
DMS 273 small cell lung
  TGI: 17.2 µM
HOP-18 NSCLC
  TGI: 26.4 µM
HS 578T breast
  TGI: > 100 µM
LXFL 529 NSCLC
  TGI: 19.7 µM
MDA-MB-231 breast
  TGI: > 61.8 µM
MDA-MB-435
  TGI: > 52.1 µM
PC-3 prostate
  TGI: > 49.8 µM
SNB-78 CNS
  TGI: 27.5 µM
T-47D breast
  TGI: > 32.1 µM
XF 498 CNS
  TGI: 16.8 µM

## CCOC(=O)Nc1cc2c(c(N)n1)N=C(c1ccc(OC)cc1)CN2
HS 578T breast
  TGI: 0.00932 µM
MDA-MB-231 breast
  GI50: 0.00386 µM
  TGI: 0.392 µM and 0.0787 µM
MDA-MB-435
  TGI: 0.000324 µM
PC-3 prostate
  GI50: 0.00142 µM
  TGI: 0.0521 µM and 0.48 µM
T-47D breast
  GI50: > 100 µM
  TGI: > 100 µM

## CCCC(C)c1ccc(OCCCCCCN2CCNCC2)cc1 (stereo not drawn)
HS 578T breast
  GI50: 1.87 µM
  TGI: 4.74 µM
MDA-MB-231 breast
  GI50: 1.75 µM
  TGI: 3.58 µM
MDA-MB-435
  GI50: 1.7 µM
  TGI: 3.22 µM
PC-3 prostate
  GI50: 2.02 µM
  TGI: 4.94 µM
T-47D breast
  GI50: 1.71 µM
  TGI: 3.72 µM

## N#C[S-].[La+3].c1cnc2c(c1)ccc1cccnc12.c1cnc2c(c1)ccc1cccnc12.c1cnc2c(c1)ccc1cccnc12
DMS 114 small cell lung
  GI50: 1.58 µM
  TGI: 5.45 µM
HOP-18 NSCLC
  GI50: 0.952 µM
  TGI: 9.46 µM
LXFL 529 NSCLC
  GI50: 1.83 µM
  TGI: 15.3 µM
XF 498 CNS
  GI50: 4.03 µM
  TGI: 9.42 µM
